Reference: patent publication US10597388B2, “Pyridazinone herbicides” (FMC CORPORATION, priority 2014, dated 2020)

Columns and labels:
Assay in all cases: Test D controlled growth environment herbicide test, pre- and postemergence
Assay type in all cases: in vivo
[1] = tested on: windgrass (Apera spica-venti)
Excerpt: (§1) Seeds of plant species selected from bluegrass (annual bluegrass, Poa annua), blackgrass (Alopecurus myosuroides), Canada thistle (Cirsium arvense), canarygrass (Phalaris minor), chickweed (common chickweed, Stellaria media), geranium, cutleaf (cutleaf geranium, Geranium dissectum), galium (catchweed bedstraw, Galium aparine), bromegrass, downy (downy bromegrass, Bromus tectorum), field poppy (Papaver rhoeas), field violet (Viola arvensis), foxtail, green (green foxtail, Setaria viridis), deadnettle (henbit deadnettle, Lamium amplexicaule), ryegrass, Italian (Italian ryegrass, Lolium multiflorum), kochia (Kochia scoparia), lambsquarters (Chenopodium album), oilseed rape (Brassica napus), pigweed (Amaranthus retroflexus), chamomile (scentless chamomile, Matricaria inodora), Russian thistle (Salsola kali), speedwell (bird's-eye speedwell, Veronica persica), barley, spring (spring barley, Hordeum vulgare), wheat, spring (spring wheat, Triticum aestivum), buckwheat, wild (wild buckwheat, Polygonum convolvulus), mustard, wild (wild mustard, Sinapis arvensis), oat, wild (wild oat, Avena fatua), radish, wild (wild radish, Raphanus raphanistrum), windgrass (Apera spica-venti), barley, winter (winter barley, Hordeum vulgare), and wheat, winter (winter wheat, Triticum aestivum) were planted into a silt loam soil and treated preemergence with test chemicals formulated in a non-phytotoxic solvent mixture which included a surfactant.
(§2) At the same time, these species were planted in pots containing Redi-Earth® planting medium (Scotts Company, 14111 Scottslawn Road, Marysville, Ohio 43041) comprising spaghnum peat moss, vermiculite, wetting agent and starter nutrients and treated with postemergence applications of the test chemicals formulated in the same manner. Plants ranged in height from 2 to 18 cm (1- to 4-leaf stage). Treated plants and controls were maintained in a controlled growth environment for 14 to 21 d after which time all species were compared to controls and visually evaluated. Plant response ratings, summarized in Table D, are based on a scale of 0 to 100 where 0 is no effect and 100 is complete control. A dash (-) response means no test result.

[2] = tested on: mustard, wild (wild mustard, Sinapis arvensis)
Excerpt: as §1, §2

[3] = tested on: radish, wild (wild radish, Raphanus raphanistrum)
Excerpt: as §1, §2

[4] = tested on: canarygrass (Phalaris minor)
Excerpt: as §1, §2

[5] = tested on: barley, spring (spring barley, Hordeum vulgare)
Excerpt: as §1, §2

[6] = tested on: chickweed (common chickweed, Stellaria media)
Excerpt: as §1, §2

[7] = tested on: barley, winter (winter barley, Hordeum vulgare)
Excerpt: as §1, §2

[8] = tested on: foxtail, green (green foxtail, Setaria viridis)
Excerpt: as §1, §2

[9] = tested on: wheat, winter (winter wheat, Triticum aestivum)
Excerpt: as §1, §2

[10] = tested on: ryegrass, Italian (Italian ryegrass, Lolium multiflorum)
Excerpt: as §1, §2

[11] = tested on: deadnettle (henbit deadnettle, Lamium amplexicaule)
Excerpt: as §1, §2

[12] = tested on: bluegrass (annual bluegrass, Poa annua)
Excerpt: as §1, §2

[13] = tested on: field poppy (Papaver rhoeas)
Excerpt: as §1, §2

[14] = Postemergence, 31 g ai/ha, scale 0 to 100 (0 no effect, 100 complete control)
[15] = Postemergence, 125 g ai/ha, visual rating on scale 0 (no effect) to 100 (complete control), 14 to 21 d
[16] = Postemergence, 250 g ai/ha, scale 0 to 100 (0 no effect, 100 complete control)
[17] = Preemergence, 125 g ai/ha, scale 0 to 100 (0 no effect, 100 complete control)
[18] = Preemergence, 250 g ai/ha, scale 0 to 100 (0 no effect, 100 complete control)
[19] = postemergence, 62 g ai/ha, scale 0 to 100, 0 no effect, 100 complete control
[20] = Preemergence, 62 g ai/ha, scale 0 to 100 (0 no effect, 100 complete control)

CC(=O)Oc1c(Br)nn(C)c(=O)c1-c1c(C)ccc2ccccc12 [Compound 129]
100: Plant response rating, Mustard, Wild [2, 16] | Plant response rating (scale of 0 to 100), Mustard, Wild ([2]; Preemergence, 62 g ai/ha) | Plant response rating, Mustard, Wild [2, 17] | Plant response rating, Mustard, Wild [2, 18] | Plant response rating (scale of 0 to 100), Radish, Wild ([3]; Preemergence, 62 g ai/ha) | Plant response rating, Radish, Wild [3, 17] | Plant response rating, Radish, Wild [3, 18] | Chickweed plant response rating [6, 14] | Plant response rating, Chickweed [6, 15] | Plant response rating, Chickweed [6, 16] | Plant response rating (scale of 0 to 100), Chickweed ([6]; Preemergence, 62 g ai/ha) | Plant response rating, Chickweed [6, 18] | Plant response rating, Chickweed [6, 19] | Plant response rating, Ryegrass, Italian [10, 18] | Plant response rating, Field Poppy [13, 17] | Plant response rating, Field Poppy [13, 18]
55: Plant response rating, Windgrass [1, 15] | Plant response rating, Canarygrass [4, 19] | Plant response rating, Wheat, Winter [9, 16]
98: Plant response rating, Mustard, Wild [2, 15] | Plant response rating, Radish, Wild [3, 16] | Plant response rating (scale of 0 to 100), Chickweed ([6]; Preemergence, 31 g ai/ha) | Plant response rating, Chickweed [6, 17] | Plant response rating, Ryegrass, Italian [10, 17] | Plant response rating, Field Poppy [13, 16] | Plant response rating (scale of 0 to 100), Field Poppy ([13]; Preemergence, 62 g ai/ha)
60: Radish, Wild plant response rating [3, 14] | Plant response rating, Canarygrass [4, 17] | Plant response rating, Wheat, Winter [9, 18] | Plant response rating (scale of 0 to 100), Deadnettle ([11]; Preemergence, 31 g ai/ha) | Plant response rating, Bluegrass [12, 18]
5: Plant response rating (scale of 0 to 100), Canarygrass ([4]; Preemergence, 31 g ai/ha)
80: Plant response rating, Windgrass [1, 18] | Mustard, Wild plant response rating [2, 14] | Plant response rating, Mustard, Wild [2, 19] | Plant response rating, Radish, Wild [3, 15] | Plant response rating (scale of 0 to 100), Radish, Wild ([3]; Preemergence, 31 g ai/ha) | Plant response rating, Canarygrass [4, 16] | Foxtail, Green plant response rating [8, 14] | Plant response rating, Foxtail, Green [8, 17] | Plant response rating, Foxtail, Green [8, 19] | Ryegrass, Italian plant response rating [10, 14] | Plant response rating (scale of 0 to 100), Ryegrass, Italian ([10]; Preemergence, 62 g ai/ha) | Plant response rating, Field Poppy [13, 15]
30: Canarygrass plant response rating [4, 14] | Plant response rating, Barley, Spring [5, 15] | Plant response rating, Barley, Spring [5, 16] | Plant response rating, Barley, Winter [7, 15] | Wheat, Winter plant response rating [9, 14] | Plant response rating, Bluegrass [12, 16]
10: Barley, Winter plant response rating [7, 14] | Plant response rating, Barley, Winter [7, 18] | Plant response rating (scale of 0 to 100), Wheat, Winter ([9]; Preemergence, 31 g ai/ha) | Bluegrass plant response rating [12, 14] | Plant response rating, Bluegrass [12, 20]
90: Plant response rating, Windgrass [1, 16] | Plant response rating, Canarygrass [4, 18] | Plant response rating, Ryegrass, Italian [10, 15] | Plant response rating, Ryegrass, Italian [10, 16] | Plant response rating (scale of 0 to 100), Field Poppy ([13]; Preemergence, 31 g ai/ha)
85: Plant response rating, Foxtail, Green [8, 15] | Plant response rating, Ryegrass, Italian [10, 19]
0: Plant response rating (scale of 0 to 100), Barley, Spring ([5]; Preemergence, 31 g ai/ha) | Plant response rating, Barley, Spring [5, 20] | Plant response rating, Barley, Spring [5, 17] | Plant response rating (scale of 0 to 100), Barley, Winter ([7]; Preemergence, 31 g ai/ha) | Plant response rating, Barley, Winter [7, 20] | Plant response rating, Barley, Winter [7, 17] | Plant response rating (scale of 0 to 100), Bluegrass ([12]; Preemergence, 31 g ai/ha)
95: Plant response rating, Foxtail, Green [8, 16] | Plant response rating, Foxtail, Green [8, 18] | Plant response rating, Deadnettle [11, 16] | Plant response rating, Deadnettle [11, 18]
25: Plant response rating, Barley, Spring [5, 19] | Plant response rating, Bluegrass [12, 17]
75: Plant response rating, Windgrass [1, 17] | Plant response rating (scale of 0 to 100), Mustard, Wild ([2]; Preemergence, 31 g ai/ha) | Plant response rating, Radish, Wild [3, 19] | Plant response rating, Canarygrass [4, 15] | Plant response rating (scale of 0 to 100), Deadnettle ([11]; Preemergence, 62 g ai/ha) | Plant response rating, Deadnettle [11, 17] | Plant response rating, Field Poppy [13, 19]
35: Plant response rating (scale of 0 to 100), Windgrass ([1]; Preemergence, 31 g ai/ha) | Plant response rating, Windgrass [1, 19] | Plant response rating, Barley, Winter [7, 16] | Plant response rating (scale of 0 to 100), Foxtail, Green ([8]; Preemergence, 31 g ai/ha) | Plant response rating (scale of 0 to 100), Wheat, Winter ([9]; Preemergence, 62 g ai/ha) | Plant response rating, Wheat, Winter [9, 19] | Deadnettle plant response rating [11, 14]
20: Windgrass plant response rating [1, 14] | Barley, Spring plant response rating [5, 14] | Plant response rating, Barley, Spring [5, 18] | Plant response rating, Barley, Winter [7, 19] | Plant response rating, Bluegrass [12, 15]
45: Plant response rating (scale of 0 to 100), Windgrass ([1]; Preemergence, 62 g ai/ha) | Plant response rating, Wheat, Winter [9, 17]
70: Plant response rating (scale of 0 to 100), Foxtail, Green ([8]; Preemergence, 62 g ai/ha) | Plant response rating (scale of 0 to 100), Ryegrass, Italian ([10]; Preemergence, 31 g ai/ha) | Plant response rating, Deadnettle [11, 15] | Field Poppy plant response rating [13, 14]
15: Plant response rating (scale of 0 to 100), Canarygrass ([4]; Preemergence, 62 g ai/ha) | Plant response rating, Bluegrass [12, 19]
40: Plant response rating, Wheat, Winter [9, 15] | Plant response rating, Deadnettle [11, 19]
